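Dose response: 5 concentrations. Exposure: 48 h. Format: 96-well plates. Endpoint: linear interpolation; highest concentration if not reached. The concentration for 50% growth inhibition is given as GI50.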 Active and inactive are the calls of the source. Rule as the data show it: active = GI50 up to about 1.1 µM and inactive = higher. Where a SMILES comes first, the peptide text is derived from it.
Key:
Experiment in all cases: inhibition of tumour cell growth, NCI panel, 48 h
XF498 = tested on: XF498
KM-20L2 = tested on: KM-20L2
DMS-114 = tested on: DMS-114
DLD-1 = tested on: DLD-1
SNB-78 = tested on: SNB-78
DMS-273 = tested on: DMS-273
RXF 631 = tested on: RXF 631
HOP-18 = tested on: HOP-18
BT-549 = tested on: BT-549

Measured: GI50

COc1ccc(NC(=O)CC(=O)N2N=C(N(CCC#N)c3ccccc3Cl)CC2c2ccccc2)cc1 (stereo not drawn)
inactive: XF498 > 100 µM | KM-20L2 > 100 µM | DMS-114 > 100 µM | DLD-1 > 100 µM | SNB-78 > 100 µM | DMS-273 > 100 µM | RXF 631 > 100 µM | HOP-18 > 100 µM

Cn1cnc([N+](=O)[O-])c1Sc1nnc(C(F)(F)F)n1C
inactive: DMS-114 34.6 µM | DLD-1 16.4 µM | SNB-78 26.2 µM | DMS-273 25.6 µM | RXF 631 17.6 µM | HOP-18 19.5 µM

Cc1cc(Cl)ccc1NC(=O)C1C(=O)N(c2ccc(Cl)cc2C)C(=O)/C1=N\NC(N)=S (stereo not drawn)
inactive: KM-20L2 20.7 µM | DMS-114 31.6 µM | DLD-1 35.3 µM | SNB-78 44 µM | DMS-273 46.3 µM | RXF 631 45.6 µM | HOP-18 16.8 µM

COc1ccc(C(=O)/C=C/c2ccc(OCC(=O)N3CCN(c4ccccc4)CC3)cc2)cc1
inactive: XF498 35.9 µM | KM-20L2 > 100 µM | DMS-114 > 90.6 µM | DLD-1 > 100 µM | SNB-78 15.1 µM | DMS-273 29.8 µM | HOP-18 > 100 µM | BT-549 24.9 µM

CCc1cccc(C)c1NC(C)=O
inactive: XF498 > 100 µM | KM-20L2 > 100 µM | DMS-114 > 100 µM | DLD-1 > 100 µM | SNB-78 > 100 µM | DMS-273 > 100 µM | RXF 631 > 100 µM

CCC(C)C1NC(=O)C2CCCN2C(=O)CNC(=O)C(C)NC(=O)C(Cc2ccccc2)NC(=O)C(C(C)C)NC1=O (stereo not drawn) (cyclo(GPIVFA); configuration not given here)
inactive: KM-20L2 > 100 µM | DMS-114 > 100 µM | DLD-1 > 100 µM | RXF 631 > 100 µM | HOP-18 > 100 µM

C=CCCCN1CCCCC1=S
inactive: XF498 > 100 µM | KM-20L2 > 100 µM | DMS-114 > 100 µM | DLD-1 > 100 µM | DMS-273 > 100 µM | RXF 631 > 100 µM | HOP-18 > 100 µM

COc1cc2c(cc1OCc1ccccc1)CNCC2
inactive: XF498 > 100 µM | KM-20L2 > 100 µM | DMS-114 > 100 µM | DLD-1 > 100 µM | SNB-78 > 100 µM | DMS-273 > 100 µM | RXF 631 > 100 µM | HOP-18 > 100 µM

CCCCCCCCCCCCCCCCOCC(CP(=O)([O-])OCC[n+]1ccccc1)OC (stereo not drawn)
inactive: XF498 12.1 µM | DMS-114 11.4 µM | DLD-1 2.81 µM | SNB-78 15.9 µM | DMS-273 2.04 µM | RXF 631 14.6 µM

C/C(CC(=O)Nc1ccc(C)cc1C)=N/N=C(N)N
inactive: XF498 > 100 µM | KM-20L2 > 100 µM | DMS-114 > 100 µM | DLD-1 > 100 µM | SNB-78 > 100 µM | DMS-273 > 100 µM | RXF 631 > 100 µM

O=C(c1cccs1)N(C(=S)N1CCN(c2ccccn2)CC1)c1ccccc1
inactive: XF498 37.5 µM | KM-20L2 > 100 µM | DMS-114 53 µM | DLD-1 > 100 µM | SNB-78 > 100 µM | DMS-273 82.8 µM | HOP-18 > 100 µM

CC(=O)NC1=C(N)C(=O)c2ccccc2C1=O
inactive: XF498 > 100 µM | KM-20L2 87.5 µM | DMS-114 14.8 µM | DLD-1 31.4 µM | SNB-78 > 100 µM | DMS-273 > 100 µM | RXF 631 > 100 µM | HOP-18 > 100 µM

COC(=O)c1nc(-c2ccc(Cl)c(Cl)c2)nc2ccccc12
inactive: XF498 6.81 µM | KM-20L2 > 100 µM | DMS-114 19.8 µM | DLD-1 > 25.2 µM | SNB-78 34.4 µM | DMS-273 26.2 µM | RXF 631 > 67.6 µM | HOP-18 2.01 µM

CC1=C(C(=O)Nc2ccccc2C)C(c2ccco2)C(C(=O)Nc2ccccc2C)=C(C)N1C
inactive: XF498 > 100 µM | DMS-114 > 100 µM | DLD-1 > 100 µM | SNB-78 > 100 µM | RXF 631 81.5 µM | HOP-18 > 100 µM

From ChEMBL document CHEMBL1201862, “PubChem BioAssay data set” (2004)
